Test results: US5204361A, “Method for treating laminitis in equine livestock” (priority 1988, dated 1993)
Read-outs that look alike come from different tables or passages of the source.

Experiments:
[1] = tested on: caecal/large colon digesta; assay: Experiment 2 Part 5: efficacy of tylosin relative to virginiamycin, digesta incubated with glucose; type: cell-based, horse; details: for L-lactate: digesta incubated with glucose, 37°, 20 hours, mean
Protocol: An in vitro fermentation experiment was conducted to determine the efficacy of tylosin relative to virginiamycin. Samples of strained caecal and large colon digesta (16 ml) were incubated with glucose solution (60 ug/ml) (4 ml) and varying concentrations of either tylosin or virginiamycin representing […], 2.0, 4.0 ug of tylosin or virginiamycin per ml. The 25 ml containers were incubated at 37° for 20 hours. There were three replicates per treatment.

[2] = tested on: caecal/large colon digesta; assay: as above; type: cell-based, horse; details: antibiotic 1.00 μg/ml, 37°, 20 hours, mean
cattle = details: Nagaraja et al. (1981); cited from earlier work
horses = details: cited from earlier work
[3] = tested on: caecal and large colon contents; assay: Experiment 2 Part 3: in vitro screening at 2 ug/ml in digesta of four horses; type: cell-based, horse; details: 2 ug antibiotic/ml, 15 mg cornstarch/ml, 20 hour incubation
Protocol: (§1) Digesta was taken from the caecum and large colon from recently slaughtered animals and was filtered through nylon gauze (approximately 60 micron apertures). The fluid was diluted 1:1 with a buffer solution described by Bales et al. (1976) and incubated with wheat "corn starch" (with or without antibiotics) at 37° for 16 to 20 hours. Aliquots of digesta diluted with buffer (50 ml) were added to 100 ml conical flasks. The flasks were flushed with carbon dioxide before being sealed with a tightly fitting rubber cap. A 21 gauge needle was inserted through the rubber seal in order to allow gas to escape during the fermentation. On removal from the incubator sub-samples were immediately taken to measure L-lactic acid concentration and pH. For each treatment or level of antibiotic three replicate incubation flasks were used.
All four of the antibiotics, listed above, were incubated as previously described to provide 2 ug antibiotic and 15 mg cornstarch per ml incubation mixture. There was one flask per test and each antibiotic was incubated in digesta from both the caecum and the large colon taken from each of 4 animals. Samples of incubation fluid were taken following a 20 hour incubation and were analysed for L-lactate and pH.

[4] = tested on: horses dosed with 15 g wheat/kg liveweight; details: for D-lactic acid, caecum / D-lactic acid, large colon / L-lactic acid, large colon / Lameness (Obel grade): avoparcin 120 mg/kg wheat; for D-lactic acid, caecum / D-lactic acid, large colon / L-lactic acid, large colon: 24 hours after wheat; for Lameness (Obel grade): within 24 hours of wheat
Protocol: Four horses were dosed with 15 g wheat/kg liveweight. The wheat given to two of the animals contained 120 mg avoparcin/kg wheat, and the other two animals received the wheat without medication. Animals were examined prior to dosing and at intervals of eight hours after the dosing for a period of 24 hours. At these times temperature and heart rate were measured, and a sample of venous blood was taken for the measurement of pH, blood gases, bicarbonate, D-lactate and L-lactate. Animals were also examined for any signs of lameness according to the criteria of Obel (1948) as summarized by Garner et al (1977). After 24 hours all animals were slaughtered and samples of digesta were taken from the caecum and large colon for analysis of lactic acid, VFA and avoparcin concentration.

sheep = details: cited from earlier work
[5] = tested on: mixed caecal/large colon digesta; assay: Experiment 2 Part 1: in vitro fermentation of digesta with cornstarch, avoparcin, virginiamycin, flavomycin 2-32 ug/ml; type: cell-based, horse; parameters: Lactate / Total VFA: unit not given here; details: for pH / Acet:Prop / Lactate / Total VFA / control of lactic acid build-up: cornstarch 15 mg/ml; for pH / Acet:Prop / Lactate / Total VFA: mean
Protocol: as §1
A range of concentrations of cornstarch providing: 0, 5, 10, 15 and 20 mg/ml diluted digesta (i.e. from 0 to 1 g cornstarch/conical flask) were tested to determine the amount required to produce a pattern of fermentation with high levels of lactic acid. Flasks were also prepared with cornstarch mixed with antibiotic premixes to provide 15 mg cornstarch/ml incubation mixture and 0, 2, 4, 8, 16 and 32 ug of avoparcin, virginiamycin or flavomycin per ml incubation mixture. After approximately 16 hour incubation at 37° samples were taken to measure lactic acid, VFA and pH.

[6] = tested on: caecal/large colon digesta; assay: Experiment 2 Part 2: in vitro fermentation with cornstarch, antibiotics at or below 2 ug/ml; type: cell-based, horse; details: cornstarch 0.75 g per flask, 16 hours, mean
Protocol: as §1
Incubation flasks were set up as described above with cornstarch (0.75 g) containing virginiamycin, flavomycin or zinc-bacitracin a levels to provide: 0, 0.25, 0.5, 1.0 and 2 ug antibiotic/ml incubation mixture. These flasks were incubated for 16 hours. Flasks were also set up with 0.75 g cornstarch and no antibiotic equipped with a tap and sampling tube in order to take samples from the incubation vessels at various times during the fermentation. Samples were taken at the start of the incubation and at 2, 4, 6, 8, 12 and 24 h. These were analysed for L-lactate concentration and pH.

[7] = Horse 1, mean of caecum and large colon
[8] = Horse 2, mean of caecum and large colon
[9] = Horse 3, mean of caecum and large colon
[10] = Horse 4, mean of caecum and large colon
[11] = antibiotic 2 μg/ml, approx 16 hour incubation at 37°
[12] = antibiotic 2 μg/ml, approx 16 hour incubation
[13] = antibiotic 4 μg/ml, approx 16 hour incubation
[14] = antibiotic 8 μg/ml, approx 16 hour incubation
[15] = antibiotic 16 μg/ml, approx 16 hour incubation
[16] = antibiotic 32 μg/ml, approx 16 hour incubation

CC[C@H]1OC(=O)C[C@@H](O)[C@H](C)[C@@H](O[C@@H]2O[C@H](C)[C@@H](O[C@H]3C[C@@](C)(O)[C@@H](O)[C@H](C)O3)[C@H](N(C)C)[C@H]2O)[C@@H](CC=O)C[C@@H](C)C(=O)/C=C/C(C)=C/[C@@H]1CO[C@@H]1O[C@H](C)[C@@H](O)[C@@H](OC)[C@H]1OC [Tylosin, tylosin]
L-lactate ([1]; antibiotic 0.50 μg/ml): 122 mmol/L
L-lactate ([1]; antibiotic 2.00 μg/ml): 38.7 mmol/L
L-lactate ([1]; antibiotic 4.00 μg/ml): 11.7 mmol/L
reduction in lactic acid levels compared with virginiamycin ([1]; at the concentrations used (0.5-4 ug/ml)): did not cause the same reduction
concentration of lactic acid during the fermentation of soluble carbohydrate ([1]; higher levels of tylosin than virginiamycin required for similar reduction): can reduce the concentration of lactic acid
L-lactate [2]: 45.1 mmol/L

CC[C@@H](C(=O)[C@@H](C)[C@@H](O)[C@H](C)CCc1ccc(C)c(O)c1C(=O)O)[C@H]1O[C@](CC)([C@H]2CC[C@](O)(CC)[C@H](C)O2)C[C@@H]1C [lasalocid]
control of lactic acidosis (cattle): lactic acidosis could be controlled

CC[C@@]1([C@@H]2O[C@@H]([C@H]3O[C@@](O)(CO)[C@H](C)C[C@@H]3C)C[C@@H]2C)CC[C@H]([C@]2(C)CC[C@]3(C[C@H](O)[C@@H](C)[C@@H]([C@@H](C)[C@@H](OC)[C@H](C)C(=O)O)O3)O2)O1 [monensin]
control of lactic acidosis (cattle): lactic acidosis could be controlled
toxicity on the host (horses): highly toxic

avoparcin
pH ([3]; Horse 1): 5.12
L-lactate [3, 7]: 19.8 mmol/L
pH ([3]; Horse 2): 4.57
L-lactate [3, 8]: 67.9 mmol/L
pH ([3]; Horse 3): 4.75
L-lactate [3, 9]: 34.5 mmol/L
pH ([3]; Horse 4): 5.15
L-lactate [3, 10]: 20.0 mmol/L
L-lactate ([3]; Mean of 4 horses): 35.5 mmol/L
pH ([3]; Mean of 4 horses): 4.90
Lactic acid concentrations, large colon digesta versus caecal contents ([4]; animals given avoparcin): appreciably lower in the large colon digesta
D-lactic acid, caecum ([4]; horse 2): 33 mmol/L
D-lactic acid, large colon ([4]; horse 2): 2 mmol/L
L-lactic acid, large colon ([4]; horse 2): 2 mmol/L
Lameness (Obel grade) ([4]; horse 2): Obel 2
D-lactic acid, caecum ([4]; horse 4): 34 mmol/L
D-lactic acid, large colon ([4]; horse 4): 11 mmol/L
L-lactic acid, large colon ([4]; horse 4): 10 mmol/L
Lameness (Obel grade) ([4]; horse 4): Obel 2
concentrations of the antibiotic, caecum versus large colon ([4]; in vivo): lower in the caecum than in the large colon
Lactic acid accumulation in the hind-gut and lameness ([4]; wheat slurry with and without avoparcin): developed irrespective of the presence of avoparcin
control of lactic acid (sheep; sheep dosed with round wheat, Aitchison et al. (1986)): particularly effective
pH [5, 11]: 6.14
Acet:Prop [5, 12]: 2.9
Lactate [5, 12]: 8.9
Total VFA [5, 12]: 102.6
Acet:Prop [5, 13]: 2.8
Lactate [5, 13]: 12.0
Total VFA [5, 13]: 100.9
pH [5, 13]: 6.17
Acet:Prop [5, 14]: 3.3
Lactate [5, 14]: 11.0
Total VFA [5, 14]: 82.1
pH [5, 14]: 6.33
Acet:Prop [5, 15]: 3.5
Lactate [5, 15]: 10.3
Total VFA [5, 15]: 87.1
pH [5, 15]: 6.40
Acet:Prop [5, 16]: 3.6
Lactate [5, 16]: 15.1
Total VFA [5, 16]: 89.8
pH [5, 16]: 6.43
control of lactic acid build-up ([5]; even at 32 µg/ml): only partially controlled
control of lactic acid ([5]; even at the highest concentrations (approx 32 times the minimum effective dose of virginiamycin)): failed to completely control lactic acid

bacitracin zinc [Zn-bacitracin]
pH ([3]; Horse 1): 4.91
L-lactate [3, 7]: 26.8 mmol/L
pH ([3]; Horse 2): 4.59
L-lactate [3, 8]: 62.5 mmol/L
pH ([3]; Horse 3): 4.76
L-lactate [3, 9]: 35.1 mmol/L
pH ([3]; Horse 4): 5.11
L-lactate [3, 10]: 22.2 mmol/L
L-lactate ([3]; Mean of 4 horses): 36.6 mmol/L
pH ([3]; Mean of 4 horses): 4.84
L-lactate ([6]; antibiotic 0.25 μg/ml): 20.6 mmol/L
pH ([6]; antibiotic 0.25 μg/ml): 5.64
L-lactate ([6]; antibiotic 0.50 μg/ml): 17.8 mmol/L
pH ([6]; antibiotic 0.50 μg/ml): 5.86
L-lactate ([6]; antibiotic 1.00 μg/ml): 15.9 mmol/L
pH ([6]; antibiotic 1.00 μg/ml): 5.68
L-lactate ([6]; antibiotic 2.00 μg/ml): 14.7 mmol/L
pH ([6]; antibiotic 2.00 μg/ml): 5.59

flavomycin (bambermycin)
pH ([3]; Horse 1): 4.88
L-lactate [3, 7]: 31.8 mmol/L
pH ([3]; Horse 2): 4.54
L-lactate [3, 8]: 55.6 mmol/L
pH ([3]; Horse 3): 4.98
L-lactate [3, 9]: 17.9 mmol/L
pH ([3]; Horse 4): 5.07
L-lactate [3, 10]: 23.7 mmol/L
L-lactate ([3]; Mean of 4 horses): 32.2 mmol/L
pH ([3]; Mean of 4 horses): 4.86
L-lactate ([6]; antibiotic 0.25 μg/ml): 12.4 mmol/L
pH ([6]; antibiotic 0.25 μg/ml): 5.69
L-lactate ([6]; antibiotic 0.50 μg/ml): 7.3 mmol/L
pH ([6]; antibiotic 0.50 μg/ml): 5.67
L-lactate ([6]; antibiotic 1.00 μg/ml): 9.9 mmol/L
pH ([6]; antibiotic 1.00 μg/ml): 5.67
L-lactate ([6]; antibiotic 2.00 μg/ml): 11.7 mmol/L
pH ([6]; antibiotic 2.00 μg/ml): 5.56
pH [5, 11]: 6.57
Acet:Prop [5, 12]: 3.4
Lactate [5, 12]: 0.0
Total VFA [5, 12]: 88.9
Acet:Prop [5, 13]: 4.6
Lactate [5, 13]: 0.0
Total VFA [5, 13]: 93.7
pH [5, 13]: 6.52
Acet:Prop [5, 14]: 5.7
Lactate [5, 14]: 0.0
Total VFA [5, 14]: 90.0
pH [5, 14]: 6.48
Acet:Prop [5, 15]: 5.8
Lactate [5, 15]: 0.0
Total VFA [5, 15]: 85.6
pH [5, 15]: 6.47
Acet:Prop [5, 16]: 5.8
Lactate [5, 16]: 0.2
Total VFA [5, 16]: 93.7
pH [5, 16]: 6.41
control of lactic acid build-up ([5]; at concentrations as low as 2 g/ml): total control

thiopeptin
control of wheat-induced acidosis (sheep; sheep, Muir et al (1980)): control of wheat-induced acidosis
